Test results reported in PubChem BioAssay (NCI).
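Values below derive from 48-hour exposures of cells grown in 96-well plates, with endpoints linearly interpolated between the two concentrations bracketing the appropriate inhibition level. TGI: concentration producing complete growth inhibition.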 Where a SMILES comes first, the peptide text is derived from it. The star is where a group is joined. Boc = CC(C)(C)OC(=O)*; Bz = O=C(c1ccccc1)*

What was measured:
Assay in all cases: inhibition of tumour cell growth, NCI panel, 48 h
786-0 renal = tested on: 786-0 renal
A498 renal = tested on: A498 renal
A549 NSCLC = tested on: A549 NSCLC
ACHN renal = tested on: ACHN renal
BT-549 breast = tested on: BT-549 breast
CAKI-1 renal = tested on: CAKI-1 renal
CCRF-CEM leukemia = tested on: CCRF-CEM leukemia
COLO 205 colon = tested on: COLO 205 colon
DU-145 prostate = tested on: DU-145 prostate
HCC-2998 colon = tested on: HCC-2998 colon
HCT-116 colon = tested on: HCT-116 colon
HCT-15 colon = tested on: HCT-15 colon
HL-60(TB) leukemia = tested on: HL-60(TB) leukemia
HOP-62 NSCLC = tested on: HOP-62 NSCLC
HOP-92 NSCLC = tested on: HOP-92 NSCLC
HS 578T breast = tested on: HS 578T breast
HT29 colon = tested on: HT29 colon
IGROV1 ovarian = tested on: IGROV1 ovarian
K-562 leukemia = tested on: K-562 leukemia
KM12 colon = tested on: KM12 colon
LOX IMVI melanoma = tested on: LOX IMVI melanoma
M14 melanoma = tested on: M14 melanoma
MALME-3M melanoma = tested on: MALME-3M melanoma
MCF7 breast = tested on: MCF7 breast
MDA-MB-231 breast = tested on: MDA-MB-231 breast
MDA-MB-435 = tested on: MDA-MB-435
MDA-N = tested on: MDA-N
MOLT-4 leukemia = tested on: MOLT-4 leukemia
NCI-H226 lung = tested on: NCI-H226 lung
NCI-H23 lung = tested on: NCI-H23 lung
NCI-H460 lung = tested on: NCI-H460 lung
NCI-H522 lung = tested on: NCI-H522 lung
NCI/ADR-RES ovarian = tested on: NCI/ADR-RES ovarian
OVCAR-4 ovarian = tested on: OVCAR-4 ovarian
OVCAR-5 ovarian = tested on: OVCAR-5 ovarian
OVCAR-8 ovarian = tested on: OVCAR-8 ovarian
PC-3 prostate = tested on: PC-3 prostate
RPMI-8226 leukemia = tested on: RPMI-8226 leukemia
RXF 393 renal = tested on: RXF 393 renal
SF-268 CNS = tested on: SF-268 CNS
SF-295 CNS = tested on: SF-295 CNS
SF-539 CNS = tested on: SF-539 CNS
SK-MEL-2 melanoma = tested on: SK-MEL-2 melanoma
SK-MEL-28 melanoma = tested on: SK-MEL-28 melanoma
SK-MEL-5 melanoma = tested on: SK-MEL-5 melanoma
SK-OV-3 ovarian = tested on: SK-OV-3 ovarian
SN12C renal = tested on: SN12C renal
SNB-19 CNS = tested on: SNB-19 CNS
SNB-75 CNS = tested on: SNB-75 CNS
SW-620 colon = tested on: SW-620 colon
T-47D breast = tested on: T-47D breast
TK-10 renal = tested on: TK-10 renal
U251 CNS = tested on: U251 CNS
UACC-257 melanoma = tested on: UACC-257 melanoma
UACC-62 melanoma = tested on: UACC-62 melanoma
UO-31 renal = tested on: UO-31 renal
EKVX NSCLC = tested on: EKVX NSCLC
OVCAR-3 ovarian = tested on: OVCAR-3 ovarian

CC(NC(=O)C(Cc1ccc(OC(=O)c2ccccc2)cc1)NC(=O)OC(C)(C)C)C(=O)NC(Cc1ccccc1)C(=O)NCC(N)=O (stereo not drawn) (Boc-Y(Bz)AFG-NH2; configuration not given here)
TGI (786-0 renal): 43.5 µM
TGI (A498 renal): 41.9 µM
TGI (A549 NSCLC): 55 µM
TGI (ACHN renal): 54.6 µM
TGI (BT-549 breast): 37.4 µM
TGI (CAKI-1 renal): > 100 µM
TGI (CCRF-CEM leukemia): > 100 µM
TGI (COLO 205 colon): 84.8 µM
TGI (DU-145 prostate): 42.3 µM
TGI (HCC-2998 colon): 38.5 µM
TGI (HCT-116 colon): 91.6 µM
TGI (HCT-15 colon): > 100 µM
TGI (HL-60(TB) leukemia): 82 µM
TGI (HOP-62 NSCLC): 31.4 µM
TGI (HOP-92 NSCLC): 50.9 µM
TGI (HS 578T breast): 47 µM
TGI (HT29 colon): 34.4 µM
TGI (IGROV1 ovarian): 40.7 µM
TGI (K-562 leukemia): 57.4 µM
TGI (KM12 colon): > 100 µM
TGI (LOX IMVI melanoma): 49.5 µM
TGI (M14 melanoma): 34 µM
TGI (MALME-3M melanoma): 42 µM
TGI (MCF7 breast): 40.8 µM
TGI (MDA-MB-231 breast): 36.5 µM
TGI (MDA-MB-435): 47.4 µM
TGI (MDA-N): 79.4 µM
TGI (MOLT-4 leukemia): > 100 µM
TGI (NCI-H226 lung): 51 µM
TGI (NCI-H23 lung): 45.9 µM
TGI (NCI-H460 lung): 33.7 µM
TGI (NCI-H522 lung): 42.6 µM
TGI (NCI/ADR-RES ovarian): > 100 µM
TGI (OVCAR-4 ovarian): 47.2 µM
TGI (OVCAR-5 ovarian): 40.3 µM
TGI (OVCAR-8 ovarian): 58.8 µM
TGI (PC-3 prostate): 37.3 µM
TGI (RPMI-8226 leukemia): 59.7 µM
TGI (RXF 393 renal): 46.4 µM
TGI (SF-268 CNS): 43 µM
TGI (SF-295 CNS): 40.1 µM
TGI (SF-539 CNS): 68.3 µM
TGI (SK-MEL-2 melanoma): 35.6 µM
TGI (SK-MEL-28 melanoma): > 100 µM
TGI (SK-MEL-5 melanoma): 81.7 µM
TGI (SK-OV-3 ovarian): 39.4 µM
TGI (SN12C renal): 42 µM
TGI (SNB-19 CNS): 36.5 µM
TGI (SNB-75 CNS): 49.6 µM
TGI (SW-620 colon): > 100 µM
TGI (T-47D breast): 50.7 µM
TGI (TK-10 renal): 41.4 µM
TGI (U251 CNS): 35.1 µM
TGI (UACC-257 melanoma): 37 µM
TGI (UACC-62 melanoma): 37.3 µM
TGI (UO-31 renal): 35.2 µM

NC(=O)NNCc1ccccc1
TGI (786-0 renal): > 100 µM
TGI (A498 renal): > 100 µM
TGI (A549 NSCLC): > 100 µM
TGI (ACHN renal): > 100 µM
TGI (BT-549 breast): > 100 µM
TGI (CAKI-1 renal): > 100 µM
TGI (CCRF-CEM leukemia): > 100 µM
TGI (COLO 205 colon): > 100 µM
TGI (DU-145 prostate): > 100 µM
TGI (EKVX NSCLC): > 100 µM
TGI (HCC-2998 colon): > 100 µM
TGI (HCT-116 colon): > 100 µM
TGI (HCT-15 colon): > 100 µM
TGI (HL-60(TB) leukemia): > 100 µM
TGI (HOP-62 NSCLC): > 100 µM
TGI (HOP-92 NSCLC): > 100 µM
TGI (HS 578T breast): > 100 µM
TGI (HT29 colon): > 100 µM
TGI (IGROV1 ovarian): > 100 µM
TGI (K-562 leukemia): > 100 µM
TGI (KM12 colon): > 100 µM
TGI (LOX IMVI melanoma): > 100 µM
TGI (M14 melanoma): > 100 µM
TGI (MCF7 breast): > 100 µM
TGI (MDA-MB-231 breast): > 100 µM
TGI (MDA-MB-435): > 100 µM
TGI (MDA-N): > 100 µM
TGI (MOLT-4 leukemia): > 100 µM
TGI (NCI-H226 lung): > 100 µM
TGI (NCI-H23 lung): > 100 µM
TGI (NCI-H460 lung): > 100 µM
TGI (NCI-H522 lung): > 100 µM
TGI (NCI/ADR-RES ovarian): > 100 µM
TGI (OVCAR-3 ovarian): > 100 µM
TGI (OVCAR-4 ovarian): > 100 µM
TGI (OVCAR-5 ovarian): > 100 µM
TGI (OVCAR-8 ovarian): > 100 µM
TGI (PC-3 prostate): > 100 µM
TGI (RPMI-8226 leukemia): > 100 µM
TGI (RXF 393 renal): > 100 µM
TGI (SF-268 CNS): > 100 µM
TGI (SF-295 CNS): > 100 µM
TGI (SF-539 CNS): > 100 µM
TGI (SK-MEL-2 melanoma): > 100 µM
TGI (SK-MEL-5 melanoma): > 100 µM
TGI (SK-OV-3 ovarian): > 100 µM
TGI (SN12C renal): > 100 µM
TGI (SNB-19 CNS): > 100 µM
TGI (SW-620 colon): > 100 µM
TGI (T-47D breast): > 100 µM
TGI (TK-10 renal): > 100 µM
TGI (U251 CNS): > 100 µM
TGI (UACC-257 melanoma): > 100 µM
TGI (UACC-62 melanoma): > 100 µM
TGI (UO-31 renal): > 100 µM

CC1(C)[C@H](C(=O)O)N2C(=O)[C@@H](NS(=O)(=O)c3ccc([N+](=O)[O-])cc3)[C@H]2S1(=O)=O
TGI (786-0 renal): > 100 µM
TGI (A498 renal): > 100 µM
TGI (A549 NSCLC): > 100 µM
TGI (ACHN renal): > 100 µM
TGI (BT-549 breast): > 100 µM
TGI (CAKI-1 renal): > 100 µM
TGI (CCRF-CEM leukemia): > 100 µM
TGI (COLO 205 colon): > 100 µM
TGI (DU-145 prostate): > 100 µM
TGI (EKVX NSCLC): > 100 µM
TGI (HCC-2998 colon): > 100 µM
TGI (HCT-116 colon): > 100 µM
TGI (HCT-15 colon): > 100 µM
TGI (HL-60(TB) leukemia): > 100 µM
TGI (HOP-62 NSCLC): > 100 µM
TGI (HOP-92 NSCLC): > 100 µM
TGI (HS 578T breast): > 100 µM
TGI (HT29 colon): > 100 µM
TGI (IGROV1 ovarian): > 100 µM
TGI (K-562 leukemia): > 100 µM
TGI (KM12 colon): > 100 µM
TGI (LOX IMVI melanoma): > 100 µM
TGI (M14 melanoma): > 100 µM
TGI (MALME-3M melanoma): > 100 µM
TGI (MCF7 breast): > 100 µM
TGI (MDA-MB-231 breast): > 100 µM
TGI (MDA-MB-435): > 100 µM
TGI (MDA-N): > 100 µM
TGI (MOLT-4 leukemia): > 100 µM
TGI (NCI-H226 lung): > 100 µM
TGI (NCI-H23 lung): > 100 µM
TGI (NCI-H460 lung): > 100 µM
TGI (NCI-H522 lung): > 100 µM
TGI (NCI/ADR-RES ovarian): > 100 µM
TGI (OVCAR-3 ovarian): > 100 µM
TGI (OVCAR-4 ovarian): > 100 µM
TGI (OVCAR-5 ovarian): > 100 µM
TGI (OVCAR-8 ovarian): > 100 µM
TGI (PC-3 prostate): > 100 µM
TGI (RXF 393 renal): > 100 µM
TGI (SF-268 CNS): > 100 µM
TGI (SF-295 CNS): > 100 µM
TGI (SF-539 CNS): > 100 µM
TGI (SK-MEL-2 melanoma): > 100 µM
TGI (SK-MEL-28 melanoma): > 100 µM
TGI (SK-MEL-5 melanoma): > 100 µM
TGI (SK-OV-3 ovarian): > 100 µM
TGI (SN12C renal): > 100 µM
TGI (SNB-19 CNS): > 100 µM
TGI (SNB-75 CNS): > 100 µM
TGI (SW-620 colon): > 100 µM
TGI (T-47D breast): > 100 µM
TGI (TK-10 renal): > 100 µM
TGI (U251 CNS): > 100 µM
TGI (UACC-257 melanoma): > 100 µM
TGI (UACC-62 melanoma): > 100 µM
TGI (UO-31 renal): > 100 µM
